Measured values taken from US20090048287A1, “Compositions useful for treating gastrointestinal motility disorders” (priority 2003, published 2009).

Key:
Assay type in all cases: in vivo, cat
feline model of GERD [1] = assay: Lower esophageal sphincter pressure (LESP), manometric recording in sedated cats; conditions: MKC-733 1.0 and 10 mg/kg i.v., naive and omeprazole pretreated, FIG. 2
Protocol: (§1) Experiments to determine the effects of MKC-733, omeprazole or the combination of MKC-733 and omeprazole on LESP, lower esophageal pH, esophageal motility and TLESR, in a feline model of GERD were conducted.
The cats used in the experiments were fasted overnight and sedated with ketamine (15-20 mg/kg intramuscular injection). A butterfly catheter filled with heparinized sterile saline was placed into the brachial vein and used for supplemental ketamine anesthesia and drug administration.
Each animal was fitted with a water-perfused sleeve catheter (Andorfer Inc, Greendale, Wis.) attached via pressure transducers to a minimally compliant hydrolytic pump. […] This 4 cm region was referred to as site 1 and the pressure was simultaneously recorded along this region. […] Throughout the experiment, the output from the pressure transducers was manometrically recorded using the PowerLab Chart 5 data acquisition program (ADInstruments, Colorado Springs, Colo.) on a computer using a Windows XP operating system.
The manometric pressure recording at site 1 of the catheter provided the baseline (at rest) LESP for each animal. The baseline LESP was recorded for each measurement regimen set forth in Experiments 1 and 2 below, and then compared. […]
(§2) Following instrumentation, baseline values of LESP, esophageal pH, esophageal peristalsis and TLESR were measured as described above. […]

feline model of GERD [2] = assay: Lower esophageal pH monitoring during gastroesophageal reflux in sedated cats; conditions: naive, MKC-733 1.0 and 10 mg/kg i.v.
Protocol: as §1
An Orion II pH probe (Medical Measurements Systems), running along with the manometric catheter, was positioned with one pH measuring site in the stomach and a second pH measuring site in the distal esophagus. pH was monitored and recorded simultaneously with the manometric recordings using a computerized data acquisition system (Medical Measurements Systems).
The pH in the lower esophagus was monitored at the same time as the manometric pressure. The pH was recorded for each measurement regimen set forth in Experiments 1 and 2.
All animals were acclimated to the facility for one week prior to testing. […]
as §2
Data is presented as mean±SEM. […] Significance of LESP treatment effects within and between experiments was evaluated using 2-Way repeated measures ANOVA. […] Significance of treatment effects for pH was evaluated using a nonparametric one-way repeated measures ANOVA (Friedman Test). […]
In 2 of the 5 animals, the 10 mg/kg dose was not administered. In 1 of the 3 remaining animals, pH was also not recorded following the […] dose.

feline model of GERD [3] = assay: Esophageal motility: peristaltic contraction amplitude after spontaneous dry swallows and balloon distension in cats
Protocol: as §1
Each animal was fitted with a water-perfused sleeve catheter (Andorfer Inc, Greendale, Wis.) attached via pressure transducers to a minimally compliant hydrolytic pump. The sleeve was positioned within the LES with the tip placed into the stomach. The total distance between recording site 0 (tip in the stomach) and recording site 2 was 4 cm. This 4 cm region was referred to as site 1 and the pressure was simultaneously recorded along this region. […] Throughout the experiment, the output from the pressure transducers was manometrically recorded using the PowerLab Chart 5 data acquisition program (ADInstruments, Colorado Springs, Colo.) on a computer using a Windows XP operating system.
The manometric pressure recordings at sites 1-5 of the sleeve catheter were recorded during primary peristalsis induced by three spontaneous dry swallows (SDS) and secondary peristalsis induced by 3 balloon distensions (BD; distension of a balloon catheter 2 cm in diameter for 5 second placed in the mid portion of the esophagus).
Esophageal motility was characterized based on the amplitude of the contractions recorded at sites 2-5 of the catheter in response to three SDS and three BD. […]

SMILES: O=C(N[C@H]1CN2CCC1CC2)c1c[nH]c2ccsc2c1=O [MKC-733, (R)—N-1-azabicyclo[2.2.2]oct-3-yl-4,7-dihydro-7-oxothieno[3,2-b]pyridine-6-carboxamide]
- LESP normalized to vehicle controls within experiments (feline model of GERD [1]): statistically significant dose-dependent increase in LESP
- percentage of time during gastroesophageal (GER) episodes when lower esophageal pH was greater than 4.0 (feline model of GERD [2]; FIG. 3): positive trend that appeared dose-dependent
- nadir pH values during GER (feline model of GERD [2]; FIG. 4): did not effect nadir pH values
- oral-to-aboral peristaltic contraction amplitude (feline model of GERD [3]; MKC-733 1.0 and 10 mg/kg i.v., normalized to vehicle, FIG. 5): dose-dependent significant enhancement
- difference in effect on peristaltic contraction amplitude between naive cats and those pretreated with omeprazole (feline model of GERD [3]; MKC-733 i.v., data not shown): no significant differences
